Assay results taken from ChEMBL document CHEMBL1201862, “PubChem BioAssay data set” (2004).
Calls of active or inactive are those of the source.

What was measured:
Protein RecA = biological target: T1, Protein RecA (Mycobacterium tuberculosis, UniProt P9WHJ3); test: Fluorescence Cell-Free Homogeneous Dose Retest to Identify Inhibitors of RecA-Intein Splicing Activity. [Related pubchem assays (depositor defined):AID2097, AID2223, AID489010, AID492950]; assay type: functional
T1 sequence (P9WHJ3 whole entry): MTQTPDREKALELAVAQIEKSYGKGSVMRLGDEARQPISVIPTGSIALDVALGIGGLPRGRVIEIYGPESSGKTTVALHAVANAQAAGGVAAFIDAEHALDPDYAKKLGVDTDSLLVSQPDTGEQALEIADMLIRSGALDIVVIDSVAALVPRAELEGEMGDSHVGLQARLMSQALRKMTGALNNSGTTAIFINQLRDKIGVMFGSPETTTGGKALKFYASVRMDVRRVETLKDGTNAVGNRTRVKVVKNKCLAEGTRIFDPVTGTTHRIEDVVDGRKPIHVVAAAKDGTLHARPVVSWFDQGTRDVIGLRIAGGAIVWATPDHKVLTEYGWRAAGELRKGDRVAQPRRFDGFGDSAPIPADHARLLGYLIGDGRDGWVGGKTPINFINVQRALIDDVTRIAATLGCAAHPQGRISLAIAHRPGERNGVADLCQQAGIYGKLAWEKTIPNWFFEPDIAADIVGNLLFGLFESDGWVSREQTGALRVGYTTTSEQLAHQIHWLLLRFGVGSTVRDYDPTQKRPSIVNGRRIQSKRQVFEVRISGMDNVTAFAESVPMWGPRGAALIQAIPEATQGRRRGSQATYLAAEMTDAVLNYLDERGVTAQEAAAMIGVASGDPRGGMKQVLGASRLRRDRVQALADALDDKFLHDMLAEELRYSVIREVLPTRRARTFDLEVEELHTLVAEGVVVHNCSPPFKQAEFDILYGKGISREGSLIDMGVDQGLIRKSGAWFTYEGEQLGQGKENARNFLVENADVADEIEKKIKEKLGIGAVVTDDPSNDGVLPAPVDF

Hexokinase HKDC1 = biological target: T2, Hexokinase HKDC1 (Homo sapiens, UniProt Q2TB90); test: inhibition of HKDC1 glucose phosphorylation – biochemical, W721R variant, dose response (AID 504729); assay type: functional
T2 sequence (Q2TB90 whole entry): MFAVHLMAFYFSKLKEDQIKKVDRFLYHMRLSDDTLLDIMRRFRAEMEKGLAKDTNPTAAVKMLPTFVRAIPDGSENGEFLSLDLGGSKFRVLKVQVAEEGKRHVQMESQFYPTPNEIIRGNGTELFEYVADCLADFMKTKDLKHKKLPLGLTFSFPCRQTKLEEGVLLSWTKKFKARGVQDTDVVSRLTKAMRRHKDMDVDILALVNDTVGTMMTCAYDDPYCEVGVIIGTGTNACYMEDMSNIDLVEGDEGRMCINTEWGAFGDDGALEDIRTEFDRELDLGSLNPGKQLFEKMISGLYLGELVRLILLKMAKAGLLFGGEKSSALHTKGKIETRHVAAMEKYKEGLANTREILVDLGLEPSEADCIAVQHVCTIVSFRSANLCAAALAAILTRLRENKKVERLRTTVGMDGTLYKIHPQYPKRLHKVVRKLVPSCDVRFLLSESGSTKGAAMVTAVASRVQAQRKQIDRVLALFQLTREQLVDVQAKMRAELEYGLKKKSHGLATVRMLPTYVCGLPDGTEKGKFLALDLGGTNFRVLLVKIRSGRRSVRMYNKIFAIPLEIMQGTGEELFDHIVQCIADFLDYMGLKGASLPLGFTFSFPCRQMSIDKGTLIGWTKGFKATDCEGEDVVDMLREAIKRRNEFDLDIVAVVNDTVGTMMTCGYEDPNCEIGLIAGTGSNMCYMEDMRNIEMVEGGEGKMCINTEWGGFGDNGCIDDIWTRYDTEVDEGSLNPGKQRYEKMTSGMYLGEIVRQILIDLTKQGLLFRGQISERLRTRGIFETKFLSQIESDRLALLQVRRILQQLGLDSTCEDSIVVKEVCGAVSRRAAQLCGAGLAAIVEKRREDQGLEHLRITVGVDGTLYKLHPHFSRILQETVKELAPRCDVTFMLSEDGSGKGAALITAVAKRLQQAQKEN

[1] = biological target: T3, Replicative DNA helicase DnaB (Mycobacterium tuberculosis, UniProt P9WMR3); test: DnaB intein splicing inhibitors, dose response, biochemical, cell-free fluorescence (AID 449749); assay type: functional
T3 sequence (P9WMR3 whole entry): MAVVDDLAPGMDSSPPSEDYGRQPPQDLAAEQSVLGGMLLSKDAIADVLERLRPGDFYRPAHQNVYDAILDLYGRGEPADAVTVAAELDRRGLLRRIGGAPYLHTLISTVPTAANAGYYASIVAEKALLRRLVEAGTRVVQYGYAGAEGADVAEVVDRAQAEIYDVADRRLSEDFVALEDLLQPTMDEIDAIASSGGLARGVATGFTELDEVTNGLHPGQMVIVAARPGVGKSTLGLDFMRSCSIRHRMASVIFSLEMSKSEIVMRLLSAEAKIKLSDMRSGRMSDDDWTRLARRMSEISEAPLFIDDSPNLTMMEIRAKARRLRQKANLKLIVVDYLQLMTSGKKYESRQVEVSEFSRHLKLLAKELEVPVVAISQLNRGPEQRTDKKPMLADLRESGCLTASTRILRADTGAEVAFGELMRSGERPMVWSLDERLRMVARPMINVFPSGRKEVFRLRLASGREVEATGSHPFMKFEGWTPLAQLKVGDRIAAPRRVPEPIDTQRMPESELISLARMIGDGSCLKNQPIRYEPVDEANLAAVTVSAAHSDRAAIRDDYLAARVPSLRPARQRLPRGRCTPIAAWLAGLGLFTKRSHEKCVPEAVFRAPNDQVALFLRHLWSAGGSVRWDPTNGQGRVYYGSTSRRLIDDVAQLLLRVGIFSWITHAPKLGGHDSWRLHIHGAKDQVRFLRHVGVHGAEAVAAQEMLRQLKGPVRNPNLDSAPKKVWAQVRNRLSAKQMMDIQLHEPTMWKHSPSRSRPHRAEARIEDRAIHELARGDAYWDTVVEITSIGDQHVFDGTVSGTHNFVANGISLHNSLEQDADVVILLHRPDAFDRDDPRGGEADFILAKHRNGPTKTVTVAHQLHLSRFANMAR

[2] = biological target: T4, Low molecular weight phosphotyrosine protein phosphatase (Homo sapiens, UniProt P24666); assay type: functional; conditions: read-out: IC50_Mean;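 also: Dose-response confirmation assay measuring inhibition of LMPTP enzyme activity by fluorescence intensity read-out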
T4 sequence (P24666 whole entry): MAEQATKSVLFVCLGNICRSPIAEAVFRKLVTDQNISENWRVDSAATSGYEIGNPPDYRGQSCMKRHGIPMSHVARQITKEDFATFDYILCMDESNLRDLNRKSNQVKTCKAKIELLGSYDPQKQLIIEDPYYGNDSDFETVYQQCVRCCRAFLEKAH

HEK293 [3] = test: cells; assay type: functional, cell-based; conditions: Homo sapiens
[4] = biological target: Nucleotide-binding oligomerization domain-containing protein 2 (Homo sapiens, UniProt Q9HC29); test: inhibition of NOD2-driven NF-kB reporter – cell-based, luminescence, uHTS, HEK293 (AID 1566); assay type: functional
Sequence of Nucleotide-binding oligomerization domain-containing protein 2 (Q9HC29 whole entry, the tested form may be a part): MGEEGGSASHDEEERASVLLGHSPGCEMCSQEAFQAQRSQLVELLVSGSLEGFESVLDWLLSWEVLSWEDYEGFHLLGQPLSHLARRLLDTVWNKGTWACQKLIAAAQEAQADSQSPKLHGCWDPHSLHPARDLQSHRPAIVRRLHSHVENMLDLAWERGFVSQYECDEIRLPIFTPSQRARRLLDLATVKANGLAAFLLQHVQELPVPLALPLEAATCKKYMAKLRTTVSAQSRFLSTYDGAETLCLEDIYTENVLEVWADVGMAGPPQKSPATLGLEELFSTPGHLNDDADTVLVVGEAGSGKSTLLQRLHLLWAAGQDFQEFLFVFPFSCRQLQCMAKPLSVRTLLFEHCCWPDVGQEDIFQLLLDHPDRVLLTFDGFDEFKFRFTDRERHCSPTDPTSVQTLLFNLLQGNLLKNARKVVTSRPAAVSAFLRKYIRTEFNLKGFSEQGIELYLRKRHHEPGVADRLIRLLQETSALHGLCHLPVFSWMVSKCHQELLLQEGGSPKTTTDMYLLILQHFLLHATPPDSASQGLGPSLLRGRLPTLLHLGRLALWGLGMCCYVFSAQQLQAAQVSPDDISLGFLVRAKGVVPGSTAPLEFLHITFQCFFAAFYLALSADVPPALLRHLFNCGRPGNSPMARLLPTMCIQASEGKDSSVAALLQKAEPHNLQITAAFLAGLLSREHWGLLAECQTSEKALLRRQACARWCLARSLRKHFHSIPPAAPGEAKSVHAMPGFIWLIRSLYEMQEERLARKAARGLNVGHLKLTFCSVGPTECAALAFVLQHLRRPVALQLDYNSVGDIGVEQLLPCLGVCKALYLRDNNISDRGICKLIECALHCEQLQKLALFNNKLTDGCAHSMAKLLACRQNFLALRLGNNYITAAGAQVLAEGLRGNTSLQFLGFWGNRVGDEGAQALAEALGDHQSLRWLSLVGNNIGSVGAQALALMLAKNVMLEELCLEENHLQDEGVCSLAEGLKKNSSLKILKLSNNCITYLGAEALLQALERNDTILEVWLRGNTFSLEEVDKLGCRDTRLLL

HEK293 [5] = test: cells; assay type: functional, cell-based; conditions: Homo sapiens; remark: listed apart in the source
HEK293 [6] = test: cells; assay type: functional, cell-based; conditions: Homo sapiens; remark: listed apart in the source
HEK293 [7] = test: inhibition of NOD1-driven NF-kB reporter – cell-based, luminescence, uHTS, primary screen (AID 1578); assay type: functional; conditions: Homo sapiens
HEK293 [8] = test: NOD2 signaling inhibitors in MDP-stimulated cells, cell-based, uHTS, luminescence (AID 2001); assay type: functional; conditions: Homo sapiens
Vero = test: viability of Vero cells under compound – cytotoxicity control for flavivirus capping enzyme inhibitors (AID 588742); assay type: functional; conditions: Chlorocebus sabaeus
Genome polyprotein = Genome polyprotein (dengue virus type 2, UniProt P29990); test: flavivirus cap methylation enzyme inhibition – biochemical, confirmation dose response, primary screen (AID 588689); assay type: functional
Sequence of Genome polyprotein (P29990 2492-3391 limits assumed): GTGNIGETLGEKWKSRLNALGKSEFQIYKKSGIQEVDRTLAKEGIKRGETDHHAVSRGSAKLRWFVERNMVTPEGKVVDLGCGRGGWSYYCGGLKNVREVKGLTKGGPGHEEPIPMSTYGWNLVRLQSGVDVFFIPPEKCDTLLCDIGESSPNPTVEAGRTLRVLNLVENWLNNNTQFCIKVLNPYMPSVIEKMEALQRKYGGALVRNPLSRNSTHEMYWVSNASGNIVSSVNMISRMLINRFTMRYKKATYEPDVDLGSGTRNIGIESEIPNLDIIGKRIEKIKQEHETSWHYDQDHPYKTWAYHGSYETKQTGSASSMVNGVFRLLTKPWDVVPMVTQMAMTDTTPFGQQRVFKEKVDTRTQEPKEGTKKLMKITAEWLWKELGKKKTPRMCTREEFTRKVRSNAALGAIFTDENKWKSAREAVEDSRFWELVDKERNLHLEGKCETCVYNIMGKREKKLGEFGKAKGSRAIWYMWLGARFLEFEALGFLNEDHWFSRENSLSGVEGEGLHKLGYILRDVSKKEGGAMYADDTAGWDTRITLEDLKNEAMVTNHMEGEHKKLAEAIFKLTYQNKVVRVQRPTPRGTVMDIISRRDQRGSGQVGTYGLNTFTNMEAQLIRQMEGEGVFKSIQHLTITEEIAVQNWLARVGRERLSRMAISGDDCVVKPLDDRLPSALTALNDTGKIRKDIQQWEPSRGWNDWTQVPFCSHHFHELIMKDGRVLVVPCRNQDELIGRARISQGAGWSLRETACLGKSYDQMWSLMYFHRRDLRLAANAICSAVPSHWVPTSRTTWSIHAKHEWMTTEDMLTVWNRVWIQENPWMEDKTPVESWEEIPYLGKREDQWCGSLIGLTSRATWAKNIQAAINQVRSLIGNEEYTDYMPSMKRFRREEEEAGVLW

[9] = Luminescence Cell-Based Dose Retest to Confirm Inhibitors of Cancer Stem Cells. [Related pubchem assays (depositor defined):AID2717, AID2721]; assay type: functional, Homo sapiens; conditions: Homo sapiens

SMILES | IC50 [2] | IC50 (HEK293 [3]) | EC50 [4] | IC50 (HEK293 [5]) | IC50 (HEK293 [6]) | EC50 (HEK293 [7]) | IC50 (HEK293 [8]) | other results
Cc1ccc(S(=O)(=O)Nc2c(O)ccc3ccccc23)cc1 |  |  |  |  |  |  |  | EC50 (Protein RecA): 939 nM (active); IC50 (Hexokinase HKDC1): 16.1 µM (active); AC50 [1]: 8.03 µM (active)
CCOC(=O)CSc1nc2ccc(C)cc2n2cnnc12 |  |  |  |  |  |  |  | IC50 (Hexokinase HKDC1): 9.55 µM (active)
CCn1cc(C(=O)O)c(=O)c2cc(F)c(N3CCN(C(=S)NC(=O)c4cccc(C)c4)CC3)cc21 | 2.74 µM (active) |  |  |  |  |  |  | 
Cc1nc(SCCC(=O)O)c2cc(-c3ccccc3)sc2n1 |  | > 20 µM (inactive) | > 20 µM (inactive) | > 20 µM (inactive) | 4.5 µM (active) | > 20 µM (inactive) | > 20 µM (inactive) | 
O=C(Nc1ccccc1-c1nc2ccccc2s1)C1=COCCO1 | 11.7 µM (active) |  |  |  |  |  |  | 
Cc1ccc(S(=O)(=O)Nc2ccccc2-c2ccccc2NS(=O)(=O)c2ccc(C)cc2)cc1 |  | > 20 µM (inactive) | 11.5 µM (active) | > 20 µM (inactive) | 11.8 µM (active) | 4.99 µM (active) | 10 µM (inactive) | CC50 (Vero): > 40 µM (active); IC50 (Genome polyprotein): 54.8 µM (active); AC50 [9]: 6.86 µM (active)
CCn1cc(C(=O)O)c(=O)c2cc(F)c(N3CCN(C(=S)NC(=O)c4ccc(Br)cc4)CC3)cc21 | 3.17 µM (active) |  |  |  |  |  |  | 
NC(=O)c1c(NC(=O)C(=O)N2CCOCC2)sc2c1CCCC2 |  | > 20 µM (inactive) | > 20 µM (inactive) | > 20 µM (inactive) | > 20 µM (inactive) | > 20 µM (inactive) | > 20 µM (inactive) | 
